Reference: patent US20110071108A1, “Beta-Cyclodextrin Derivatives as Antibacterial Agents” (Pinnacle Pharmaceuticals, Inc., priority 2005, published 2011)

Legend:
Eschericia coli = assay: Bacterial panel testing, MIC by broth microdilution; assay type: cell-based; details: 20-24 hours growth
How it was run: (§1)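 MIC via two-fold broth microdilution of compound (diluted to 10 μg/ml in DMSO) in McFarland-standardized, diluted inoculum in Mueller-Hinton or Brain Heart infusion media. Plates sealed (E. faecium with air-pore tape), incubated 20-24 h; clear wells read. Rifampicin included as control.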

Enterococcus faecium = assay: as above; assay type: cell-based; details: 20-24 hours growth
How it was run: as §1

Pseudomonas aeruginosa = assay: as above; assay type: cell-based; details: 20-24 hours growth
How it was run: as §1

Salmonella choleraesuis = assay: as above; assay type: cell-based; details: 20-24 hours growth
How it was run: as §1

Staphylococcus aureus = assay: as above; assay type: cell-based; details: 20-24 hours growth
How it was run: as §1

[1] = tested on: Pseudomonas aeruginosa clinical isolate, multi-drug resistant; assay: Potentiation of clinically used antibiotics, multi-drug resistant clinical isolate; assay type: cell-based; details: Table 4, antibiotic alone or mixed with PP compound
Method: (§2) One to three colonies of bacteria were picked from an Mueller-Hinton or Brain Heart infusion agar plate (depending on the bacterial strain) and transferred to 3 ml Mueller-Hinton broth or Brain Heart infusion media (depending on the bacterial strain). Bacteria were allowed to grow for 2-4 hours in an incubator at 37° C. Bacteria-inoculated media were dispersed in 0.9% saline to match McFarland standard density. 100 μl standardized inoculation was added to 20 ml media (dilution 1). 10 μl of the new dilution was added to 990 μl media and mixed (dilution 2). 10 μl of dilution 2 was spread on an agar plate and allowed to grow overnight. Colonies were then […].
(§3) Test compound was diluted to 10 μg/ml in dimethylsulfoxide. Four μl of Rifampicin antibiotic was loaded into row H, column 2.
All wells were then filled with 100 μl of inoculated media (dilution 1 from Example 1). A further 100 μl of the inoculated media was then added to column 2 and the contents are pipetted to thoroughly mix the contents. A full 100 μl was then transferred from column 2 and mixed into column 3. This process was continued from left to right until columns 2-12 were serially diluted, and the final draw from column 12 was discarded. […] Cytotoxic wells (clear wells) are then scored and the potency of the compound was determined. […]

[2] = tested on: P. aeruginosa (susceptible clinical isolate); assay: Potentiation of clinically used antibiotics, susceptible clinical isolate; assay type: cell-based, Pseudomonas aeruginosa; details: Table 3; antibiotic alone or mixed with PP compound
Method: as §2, §3
All wells were then filled with 100 μl of inoculated media (dilution 1 from Example 1). A further 100 μl of the inoculated media was then added to column 2 and the contents are pipetted to thoroughly mix the contents. A full 100 μl was then transferred from column 2 and mixed into column 3. This process was continued from left to right until columns 2-12 were serially diluted, and the final draw from column 12 was discarded. The plates were covered with 3M sealing tape (plates containing Enterococcus faecium were sealed with Air Pore sealing tape) and allowed to grow for 20-24 hours. Cytotoxic wells (clear wells) are then scored and the potency of the compound was determined.
Numerous pathogenic bacteria have developed a resistance to many clinically used antibiotics. Following the protocols described herein, various compounds were mixed with clinically used antibiotics to treat Pseudomonas aeruginosa (P. aeruginosa).

SMILES	MIC EC (Eschericia coli) [µg/mL]	MIC EF (Enterococcus faecium) [µg/mL]	MIC PA (Pseudomonas aeruginosa) [µg/mL]	MIC SC (Salmonella choleraesuis) [µg/mL]	MIC SA (Staphylococcus aureus) [µg/mL]	Mammalian Cytotoxicity IC50 (Lungs cancer cells A549) [µg/mL]	MIC [1] [µg/mL]	Activity of known antibiotics alone or in combination with compounds of the invention, P. aeruginosa (susceptible clinical isolate) [2]
O=C(NCC1OC2OC3C(CNC(=O)C4CCCN4)OC(OC4C(CNC(=O)C5CCCN5)OC(OC5C(CNC(=O)C6CCCN6)OC(OC6C(CNC(=O)C7CCCN7)OC(OC7C(CNC(=O)C8CCCN8)OC(OC8C(CNC(=O)C9CCCN9)OC(OC1C(O)C2O)C(O)C8O)C(O)C7O)C(O)C6O)C(O)C5O)C(O)C4O)C(O)C3O)C1CCCN1.O=C(O)C(F)(F)F.O=C(O)C(F)(F)F.O=C(O)C(F)(F)F.O=C(O)C(F)(F)F.O=C(O)C(F)(F)F.O=C(O)C(F)(F)F.O=C(O)C(F)(F)F (stereo not shown)	>200	>200	>200	>200	>200	524		
CCn1cc(C(=O)O)c(=O)c2cc(F)c(N3CCNCC3)cc21 [Norfloxacin]							> 100	
Cl.Cl.Cl.Cl.Cl.Cl.Cl.NCCCCSC[C@H]1O[C@@H]2O[C@H]3[C@H](O)[C@@H](O)[C@@H](O[C@H]4[C@H](O)[C@@H](O)[C@@H](O[C@H]5[C@H](O)[C@@H](O)[C@@H](O[C@H]6[C@H](O)[C@@H](O)[C@@H](O[C@H]7[C@H](O)[C@@H](O)[C@@H](O[C@H]8[C@H](O)[C@@H](O)[C@@H](O[C@H]1[C@H](O)[C@H]2O)O[C@@H]8CSCCCCN)O[C@@H]7CSCCCCN)O[C@@H]6CSCCCCN)O[C@@H]5CSCCCCN)O[C@@H]4CSCCCCN)O[C@@H]3CSCCCCN	>200	>200	>200	>200	>200	198		
CC1(C)S[C@@H]2[C@H](NC(=O)COc3ccccc3)C(=O)N2[C@H]1C(=O)O [Penicillin V]								>100
COc1cccc(OC)c1C(=O)N[C@@H]1C(=O)N2[C@@H]1SC(C)(C)[C@@H]2C(=O)O [Methicillin]								>100
I.I.I.I.I.I.I.N=C(N)SCC1OC2OC3C(CSC(=N)N)OC(OC4C(CSC(=N)N)OC(OC5C(CSC(=N)N)OC(OC6C(CSC(=N)N)OC(OC7C(CSC(=N)N)OC(OC8C(CSC(=N)N)OC(OC1C(O)C2O)C(O)C8O)C(O)C7O)C(O)C6O)C(O)C5O)C(O)C4O)C(O)C3O (stereo not shown)	>200	>200	>200	>200	>200	480		
Cl.Cl.Cl.Cl.Cl.Cl.NCCCCSCC1OC2OC3C(CSCCCCN)OC(OC4C(CSCCCCN)OC(OC5C(CSCCCCN)OC(OC6C(CSCCCCN)OC(OC7C(CSCCCCN)OC(OC1C(O)C2O)C(O)C7O)C(O)C6O)C(O)C5O)C(O)C4O)C(O)C3O (stereo not shown)	>200	>200	>200	>200	>200	589		
Cl.Cl.Cl.Cl.Cl.Cl.Cl.NCCSC[C@H]1O[C@@H]2O[C@H]3[C@H](O)[C@@H](O)[C@@H](O[C@H]4[C@H](O)[C@@H](O)[C@@H](O[C@H]5[C@H](O)[C@@H](O)[C@@H](O[C@H]6[C@H](O)[C@@H](O)[C@@H](O[C@H]7[C@H](O)[C@@H](O)[C@@H](O[C@H]8[C@H](O)[C@@H](O)[C@@H](O[C@H]1[C@H](O)[C@H]2O)O[C@@H]8CSCCN)O[C@@H]7CSCCN)O[C@@H]6CSCCN)O[C@@H]5CSCCN)O[C@@H]4CSCCN)O[C@@H]3CSCCN	>200	>200	>200	>200	>200	829		
CN[C@H](CC(C)C)C(=O)N[C@H]1C(=O)N[C@@H](CC(N)=O)C(=O)N[C@H]2C(=O)N[C@H]3C(=O)N[C@H](C(=O)N[C@H](C(=O)O)c4cc(O)cc(O)c4-c4cc3ccc4O)[C@H](O)c3ccc(c(Cl)c3)Oc3cc2cc(c3O[C@@H]2O[C@H](CO)[C@@H](O)[C@H](O)[C@H]2O[C@H]2C[C@](C)(N)[C@H](O)[C@H](C)O2)Oc2ccc(cc2Cl)[C@H]1O [Vancomycin]								>100
Cl.Cl.Cl.Cl.Cl.Cl.Cl.Cl.Cl.Cl.Cl.Cl.Cl.Cl.NCCCC[C@@H](N)C(=O)NC[C@H]1O[C@@H]2O[C@H]3[C@H](O)[C@@H](O)[C@@H](O[C@H]4[C@H](O)[C@@H](O)[C@@H](O[C@H]5[C@H](O)[C@@H](O)[C@@H](O[C@H]6[C@H](O)[C@@H](O)[C@@H](O[C@H]7[C@H](O)[C@@H](O)[C@@H](O[C@H]8[C@H](O)[C@@H](O)[C@@H](O[C@H]1[C@H](O)[C@H]2O)O[C@@H]8CNC(=O)[C@H](N)CCCCN)O[C@@H]7CNC(=O)[C@H](N)CCCCN)O[C@@H]6CNC(=O)[C@H](N)CCCCN)O[C@@H]5CNC(=O)[C@H](N)CCCCN)O[C@@H]4CNC(=O)[C@H](N)CCCCN)O[C@@H]3CNC(=O)[C@H](N)CCCCN	>200	>200	>200	>200	>200	2990		
